Where “and” joins values, the source holds several entries; their conditions need not be identical. Identical values can stand only once. Like-named read-outs stand apart in the source and are kept apart here.
How the values were obtained:
cats = assay: No-choice acceptance of food, cats (Example 24); type: in vivo; conditions: Feline
Text: (§1) Acceptance of food containing […]® or DLM was studied to evaluate dietary consumption under no-choice conditions. […] The urine pH of six of the cats was also monitored. The diets described in Tables 39 and 40 above were used.

mold = assay: Mold growth in starter mash by CO2 formation in headspace (Examples 7, 8); conditions: for mold growth (CO2 in headspace), words: 0.2% in starter mash
Procedure: Fungal growth in basal starter mash was studied in compositions supplemented with DLM or Alimet® as the methionine source. Total microbial growth was monitored by measuring carbon dioxide (CO2) formation in sealed vessels at 28° C. over time.
The technique of using a closed system and measuring CO2 formation has been verified as an approximation of the conditions found in grain storage bins. See, e.g., Muir et al., Trans. ASAE, 28(5) 1673-1675 (1985), the contents of which are hereby incorporated by reference in their entirety.
A mash starter mash feed (formulation shown in Table 9, below) was subdivided into three groups: basal (control), 0.2% DLM, or 0.2% Alimet®. The feed studied had no commercial mold inhibitors added, and is representative of a typical broiler feed.
Initial moisture of the feed was 10.8%. After the addition of Alimet® or DLM, the moisture of the samples was adjusted by the addition of 2%, 4%, or 6% sterile distilled water to promote mold growth, achieving three moisture groups: […].
For each study, four replicate samples of each moisture group were mixed, and 600 g of the mixture was placed into 1 L containers, sealed, and placed at 28° C. in a temperature-controlled room. Draeger Detector tubes (CO2-measuring, obtained from Fisher Scientific) were used to measure the developed CO2 at different days following vessel sealing (two measurements were made per week). Draeger Short-Term Detector Tubes are glass tubes filled with inert carrier and an indicating reagent. The reagent produces a colorimetric indication in the presence of a particular gas (CO2). The concentration of gas is read directly from the discoloration on the tube's printed scale.
The specific mold species present were not identified. Statistical analysis was accomplished by using Duncan's multiple range test (SAS). Different letters on individual time points in FIGS. 9-11 indicate statistical differences of P<0.05.
The experiment described above in Example 7 was repeated with blends of 2.0 lb/ton, 1.5 lb/ton, 1.0 lb/ton or 0.5 lb/ton of 65% propionic acid and either […]. The blends were prepared according to the matrix outlined in Table 8, below. The 65% propionic acid was buffered with ammonium hydroxide to a pH of 5.5.

dogs = assay: No-choice acceptance of food, dogs (Example 24); type: in vivo; conditions: Canine
Text: as §1

C. jejuni = C. jejuni colony counts in broth (Example 1); type: cell-based; conditions: for Δ log: Table 4, 6 h, initial 5.23
Procedure: C. jejuni grown on Campylobacter blood-free selective agar was used for inoculation. Preston broth was incubated under reduced oxygen atmosphere for 6 hours at 37° C. Colony counts were performed.

S. enteritidis = S. enteritidis colony counts in broth (Examples 1-3, 17)
E. coli [1] = type: cell-based; conditions: for Δ log: Table 2, 4 h, initial 5.24
Procedure: Colony counts were performed according to standard operating procedures.

Lactobacillus plantarum = assay: L. plantarum colony counts in broth at pH 3.5 (Example 16); type: cell-based; conditions: log 6 hours − log initial (5.61)
Procedure: Fresh overnight culture L. plantarum in Brain Heart Infusion broth is used to inoculate medium 5 at a log 4.1 cfu/mL at pH 3.5. The tubes are incubated under oxygen reduced atmosphere for 6 hours at 37° C. Colony counts are performed according standard procedures.

E. coli [2] = assay: E. coli colony counts over time in soy broth at pH 4 or 7.3 (Example 5); type: cell-based; conditions: FIG. 5
Procedure: The cultures were incubated, and colony counts performed at increasing times.

L. plantarum = L. plantarum colony counts in broth (Example 1); type: cell-based; conditions: for Δ log: Table 3, 6 h, log sample − log initial (5.04)
Procedure: The fresh overnight culture of L. plantarum in brain heart infusion broth were used to inoculate medium 5. The test tubes were incubated under reduced oxygen atmosphere for 6 hours at 37° C. Colony counts were performed.

CSCCC(N)C(=O)O (racemic) [DLM, DL-methionine]
Total grams consumed, supplemented food (cats; DLM 0.25%): 1,842 grams
Total grams consumed, supplemented food (cats; DLM 0.3%): 1,754 grams
mold growth (CO2 in headspace), words (mold; 12.8% moisture, FIG. 11): sharp increase in mold growth after only twenty days
mold growth (CO2 in headspace), words (mold; 16.8% moisture, FIG. 9): showed mold growth within two days
mold growth, overall comparison (mold; FIGS. 9, 10, 11, vs untreated and each other): more likely to develop mold
Total grams consumed, supplemented food (dogs; DLM 0.1%): 11,244 grams
Total grams consumed, supplemented food (dogs; DLM 0.15%): 13,542 grams

O=CO [formic acid]
Δ log (C. jejuni; 0.108 g/L, pH 4.5): −1.37
Δ log (C. jejuni; 0.108 g/L, pH 6.75): 1.04
Δ log (C. jejuni; 0.30 g/L, pH 4.5): −2.60
Δ log (C. jejuni; 0.30 g/L, pH 6.75): 1.15
Δ log (C. jejuni; 0.83 g/L, pH 4.5): <−3.93
Δ log (C. jejuni; 0.83 g/L, pH 6.75): 1.02
inhibition of C. jejuni (C. jejuni; pH 4.5): comparable inhibition
antibacterial activity against C. jejuni (C. jejuni; pH 6.75): No antibacterial activity
log cfu/mL (C. jejuni; pH 6.75): 6.27 log cfu/mL and 6.38 log cfu/mL and 6.25 log cfu/mL
effect on inhibiting the growth of S. enteritidis (S. enteritidis; pH 4.5): neither had a significant effect
reduction in S. enteritidis growth (S. enteritidis; pH 4.5): approximately 1.2 log cfu/mL
reduction of growth of S. enteritidis (S. enteritidis; pH 4.5): approximately 1.3 log cfu/mL
growth inhibition of S. enteritidis (S. enteritidis; pH 6.75): ~1 log cfu/mL
inhibition of S. enteritidis (S. enteritidis; pH 6.75): no inhibition
Δ log (E. coli [1]; 0.108 g/L, pH 4.5): −0.05
Δ log (E. coli [1]; 0.108 g/L, pH 6.75): 2.24
Δ log (E. coli [1]; 0.30 g/L, pH 4.5): −0.28
Δ log (E. coli [1]; 0.30 g/L, pH 6.75): 2.26
Δ log (E. coli [1]; 0.83 g/L, pH 4.5): −0.16
Δ log (E. coli [1]; 0.83 g/L, pH 6.75): 2.25
inhibition of E. coli (E. coli [1]; pH 4.5): little or no inhibition
log cfu/mL (E. coli [1]; pH 4.5): 5.19 log cfu/mL and 4.96 log cfu/mL and 5.08 log cfu/mL
log reduction of E. coli growth (E. coli [1]; pH 4.5): approximately 0.1 log
inhibition of E. coli (E. coli [1]; pH 6.75): Neither Alimet® nor formic acid inhibited E. coli
log cfu/mL (E. coli [1]; pH 6.75): 7.48 log cfu/mL and 7.50 log cfu/mL and 7.49 log cfu/mL
Δ log (Lactobacillus plantarum; Table 23, 3 g/kg): −2.42
Δ log (Lactobacillus plantarum; Table 23, 5 g/kg): −5.91
decrease of colony counts of E. coli vs hydrochloric acid (E. coli [2]): better than hydrochloric acid
inhibition of L. plantarum (L. plantarum): Neither Alimet® nor formic acid inhibited L. plantarum
Δ log (L. plantarum; 0.108 g/L, pH 4.5): 0.71
Δ log (L. plantarum; 0.108 g/L, pH 6.75): 0.84
Δ log (L. plantarum; 0.30 g/L, pH 4.5): 0.70
Δ log (L. plantarum; 0.30 g/L, pH 6.75): 1.19
Δ log (L. plantarum; 0.83 g/L, pH 4.5): 0.52
Δ log (L. plantarum; 0.83 g/L, pH 6.75): 1.15
log cfu/mL (L. plantarum; pH 4.5): 5.75 log cfu/mL and 5.74 log cfu/mL and 5.56 log cfu/mL
